Test results taken from patent US20120149661A1, “TETRA-SUBSTITUTED HETEROARYL COMPOUNDS AND THEIR USE AS MDM2 AND/OR MDM4 MODULATORS” (NOVARTIS AG, priority 2009, published 2012).

`CCNC(=O)c1nc(-c2ccc(C)c(C)c2)n(-c2cc(Cl)ccc2C)c1-c1cccc(Cl)c1` [Example 1, 1-(5-Chloro-2-methyl-phenyl)-5-(3-chloro-phenyl)-2-(3,4-dimethyl-phenyl)-1H-imidazole-4-carboxylic acid ethylamide] gave a melting point of 141 to 143 °C. Molecule `Cc1ccc(-c2nc(C#N)c(-c3cccc(Cl)c3)n2-c2cc(Cl)ccc2C)cc1C` [Example 3, 1-(5-chloro-2-methyl-phenyl)-5-(3-chloro-phenyl)-2-(3,4-dimethyl-phenyl)-1H-imidazole-4-nitrile] has a melting point of 218 °C. With `O=Cc1cc(-c2nc(C(=O)O)c(-c3ccc(F)c(Cl)c3)n2-c2cccc(Cl)c2F)cs1` [Example 293, 5-(3-Chloro-4-fluoro-phenyl)-1-(3-chloro-2-fluoro-phenyl)-2-(5-formyl-thiophen-3-yl)-1H-imidazole-4-carboxylic acid] the melting point was 157 to 160 °C.
